From ChEMBL document CHEMBL5390237, “Discovery of Selective Histone Deacetylase 1 and 2 Inhibitors: Screening of a Focused Library Constructed by Click Chemistry, Kinetic Binding Analysis, and Biological Evaluation” (J Med Chem, 2023) come the findings set out here.

In general, inhibition refers to the drop in the measured response relative to a control, in per cent.

For the experiment, the target named is Histone deacetylase 2 (Homo sapiens, UniProt Q92769). In words: Inhibition of full-length recombinant human C-terminal GST tagged HDAC2 expressed in Sf9 insect cells using aminoluciferin peptide substrate at 100 nM preincubated for 3 hrs followed by substrate addition and measured after 30 mins by HDAC-Glo I/II chemiluminescence assay. Particulars: time 3.5 hrs.
Sequence of Histone deacetylase 2 (Q92769 whole entry): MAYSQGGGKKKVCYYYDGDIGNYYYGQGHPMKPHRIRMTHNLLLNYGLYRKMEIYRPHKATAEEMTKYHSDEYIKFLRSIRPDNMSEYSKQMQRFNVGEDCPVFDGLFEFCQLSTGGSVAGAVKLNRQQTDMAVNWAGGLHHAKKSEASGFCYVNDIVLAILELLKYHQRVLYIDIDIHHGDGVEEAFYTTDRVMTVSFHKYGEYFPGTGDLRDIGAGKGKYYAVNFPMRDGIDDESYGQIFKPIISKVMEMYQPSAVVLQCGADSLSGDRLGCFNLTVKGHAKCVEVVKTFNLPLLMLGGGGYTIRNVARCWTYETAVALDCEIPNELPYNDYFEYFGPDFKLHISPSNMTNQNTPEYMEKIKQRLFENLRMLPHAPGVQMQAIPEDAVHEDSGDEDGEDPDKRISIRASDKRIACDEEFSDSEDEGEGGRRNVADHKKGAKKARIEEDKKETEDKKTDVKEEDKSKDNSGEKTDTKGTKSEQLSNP
`Nc1ccc(-c2ccsc2)cc1NC(=O)CCc1cn(Cc2nc3ccccc3[nH]2)nn1`: the inhibition worked out at 25%.
As for `Nc1ccc(-c2ccccc2)cc1NC(=O)c1cn(C[S+]([O-])c2ccccc2)nn1` (stereo not drawn), the inhibition amounted to 0%.
Then `Nc1ccc(-c2ccc(F)cc2)cc1NC(=O)CCc1cn(CCc2cccc3ccccc23)nn1`, with 0%; and `Nc1ccc(-c2ccsc2)cc1NC(=O)c1cn(CCc2cccc(Cl)c2)nn1`, with 0%.
Then `Nc1ccc(-c2cccs2)cc1NC(=O)c1cn(C[S+]([O-])c2ccccc2)nn1` (stereo not drawn), with 8%; and `Nc1ccc(-c2ccc(F)cc2)cc1NC(=O)c1cn(CCc2ccccc2C(F)(F)F)nn1`, with 0%; and `Nc1ccc(-c2cccs2)cc1NC(=O)c1ccc(-c2cn(CCc3cccc([N+](=O)[O-])c3)nn2)cc1`, with 25%.
With `Nc1ccc(-c2ccccc2)cc1NC(=O)c1cn(CCc2ccc(C(F)(F)F)cc2)nn1`, the inhibition was determined as 0%.
Turning to `Nc1ccc(-c2cccs2)cc1NC(=O)c1ccc(-c2cn(CCCCCC(=O)O)nn2)s1`, the inhibition came out at 54%.
Take `Nc1ccc(-c2ccc(F)cc2)cc1NC(=O)c1cn(CCc2cccc([N+](=O)[O-])c2)nn1`: the inhibition came to 20%.
Consider `Nc1ccc(-c2ccccc2)cc1NC(=O)c1cn(CC(=O)Nc2ccc(F)cc2)nn1`, for which the inhibition amounted to 0%.
Regarding `Nc1ccc(-c2cccs2)cc1NC(=O)CCc1cn(Cc2ccc(-c3ccccc3)cc2)nn1`, the inhibition came to 0%.
As for `Nc1ccc(-c2cccs2)cc1NC(=O)c1ccc(-c2cn(CCc3ccc(C(F)(F)F)cc3)nn2)cc1`, the inhibition stood at 0%.
`Nc1ccc(-c2cccs2)cc1NC(=O)c1cn(CCc2ccc([N+](=O)[O-])cc2)nn1`: the inhibition amounted to 17%.
For `Nc1ccc(-c2ccccc2)cc1NC(=O)CCc1cn(-c2ccc(I)cc2)nn1`, the inhibition amounted to 0%.
With `COc1ccc(-n2cc(C(=O)Nc3cc(-c4cccs4)ccc3N)nn2)cc1`, the inhibition turned out to be 6%.
`Nc1ccc(-c2cccs2)cc1NC(=O)c1cn(CCc2ccc(Cl)cc2)nn1`: the inhibition amounted to 0%.
The result for `COc1ccc(Cn2cc(C(=O)Nc3cc(-c4cccs4)ccc3N)nn2)cc1` reads 17%.
For `Nc1ccc(-c2cccs2)cc1NC(=O)c1ccc(-c2cn(CCc3ccc(Cl)cc3)nn2)s1`, the inhibition worked out at 3%.
For `Nc1ccc(-c2cccs2)cc1NC(=O)CCc1cn(CCc2ccc([N+](=O)[O-])cc2)nn1`, the inhibition was determined as 27%.
Take `Cc1cccc(C)c1NC(=O)Cn1cc(CCC(=O)Nc2cc(-c3ccc(F)cc3)ccc2N)nn1`: the inhibition worked out at 18%.
For `Nc1ccc(-c2cccs2)cc1NC(=O)c1ccc(-c2cn(CCc3ccccc3)nn2)cc1`, the inhibition is 65%.
With `COc1ccc(-n2cc(CCC(=O)Nc3cc(-c4ccc(F)cc4)ccc3N)nn2)cc1`, the inhibition stood at 10%.
Then `Nc1ccc(-c2cccs2)cc1NC(=O)c1ccc(-c2cn(CCCc3ccccc3)nn2)cc1`, with 2%; and `COc1ccc(CCn2cc(C(=O)Nc3cc(-c4cccs4)ccc3N)nn2)cc1`, with 21%.
Then `Nc1ccc(-c2cccs2)cc1NC(=O)c1ccc(-c2cn(CCc3ccccc3Cl)nn2)cc1`, with 5%; and `Cc1ccc(CCn2cc(C(=O)Nc3cc(-c4ccsc4)ccc3N)nn2)cc1`, with 8%; and `Nc1ccc(-c2ccccc2)cc1NC(=O)c1cn(CCc2cccc([N+](=O)[O-])c2)nn1`, with 0%.
The result for `Nc1ccc(-c2ccc(F)cc2)cc1NC(=O)CCc1cn(Cc2ccc(OC(F)(F)F)cc2)nn1` reads 0%.
For the compound `Nc1ccc(-c2ccsc2)cc1NC(=O)CCc1cn(Cc2cccc(-c3ccccc3)c2)nn1`, the inhibition amounted to 0%.
Turning to `Cc1ccc(-n2cc(CCC(=O)Nc3cc(-c4ccsc4)ccc3N)nn2)cc1C`, the inhibition was 0%.
On to `Nc1ccc(-c2ccsc2)cc1NC(=O)CCc1cn(Cc2cccc3ccccc23)nn1`, for which the inhibition was determined as 2%.
`Nc1ccc(-c2ccccc2)cc1NC(=O)CCc1cn(Cc2ccc3ccccc3n2)nn1`: the inhibition came to 18%.
Take `Nc1ccc(-c2ccccc2)cc1NC(=O)CCc1cn(-c2ccc([N+](=O)[O-])cc2)nn1`: the inhibition worked out at 0%.
`Nc1ccc(-n2cc(-c3cccc(C(=O)Nc4cc(-c5cccs5)ccc4N)c3)nn2)cc1`: the inhibition came to 30%.
The result for `Cc1ccc(-n2cc(CCC(=O)Nc3cc(-c4ccc(F)cc4)ccc3N)nn2)cc1C` reads 0%.
Then `Nc1ccc(-c2cccs2)cc1NC(=O)c1cn(-c2ccc(O)cc2)nn1`, with 0%.
Then `Nc1ccc(-c2cccs2)cc1NC(=O)CCc1cn(CC2CCCCC2)nn1`, with 0%; and `Nc1ccc(-c2ccsc2)cc1NC(=O)CCc1cn(CCc2ccc(C(=O)O)cc2)nn1`, with 31%.
For the compound `Nc1ccc(-c2ccc(F)cc2)cc1NC(=O)c1cn(-c2ccccc2-c2ccccc2)nn1`, the inhibition turned out to be 19%.
The result for `Nc1ccc(-c2ccccc2)cc1NC(=O)c1cn(CS(=O)(=O)c2ccccc2)nn1` reads 0%; that for `Nc1ccc(-c2ccc(F)cc2)cc1NC(=O)CCc1cn(CCc2ccc(C(F)(F)F)cc2)nn1`, 1%.
Then `Nc1ccc(-c2cccs2)cc1NC(=O)c1ccc(-c2cn(Cc3cc4ccccc4s3)nn2)cc1`, with 0%; and `Nc1ccc(-c2ccc(F)cc2)cc1NC(=O)CCc1cn(CCc2cccc(F)c2)nn1`, with 15%.
Then `Nc1ccc(-c2cccs2)cc1NC(=O)c1ccc(-c2cn(Cc3cccc(-c4ccccc4)c3)nn2)cc1`, with 0%; and `Nc1ccc(-c2cccs2)cc1NC(=O)c1cccc(-c2cn(C[S+]([O-])c3ccccc3)nn2)c1` (stereo not drawn), with 6%; and `Nc1ccc(-c2cccnc2)cc1NC(=O)CCc1cn(Cc2cccc(-c3ccccc3)c2)nn1`, with 0%.
For `Nc1ccc(-c2cccnc2)cc1NC(=O)CCc1cn(CCc2ccccc2C(F)(F)F)nn1`, the inhibition came out at 0%.
Regarding `Nc1ccc(-c2cccs2)cc1NC(=O)CCc1cn(CCC2CCCC2)nn1`, the inhibition is 0%.
For `Nc1ccc(-c2cccs2)cc1NC(=O)c1ccc(-c2cn(CC34CC5CC(CC(C5)C3)C4)nn2)cc1`, the inhibition came out at 0%.
In the case of `Nc1ccc(-c2ccccc2)cc1NC(=O)c1cn(CCc2ccsc2)nn1`, the inhibition was determined as 0%.
Then `Nc1ccc(-c2cccs2)cc1NC(=O)c1ccc(-c2cn(Cc3cccc4ccccc34)nn2)cc1`, with 14%; and `Nc1ccc(-c2ccc(F)cc2)cc1NC(=O)c1cn(CCc2ccsc2)nn1`, with 1%; and `Nc1ccc(-c2cccs2)cc1NC(=O)CCc1cn(CCc2cccc3ccccc23)nn1`, with 0%.
The result for `Nc1ccc(-c2cccs2)cc1NC(=O)c1cccc(-c2cn(Cc3cccc(C(=O)O)c3)nn2)c1` reads 17%; that for `COc1ccc(CCn2cc(-c3ccc(C(=O)Nc4cc(-c5cccs5)ccc4N)cc3)nn2)cc1`, 40%; that for `CCc1ccc(Cn2cc(C(=O)Nc3cc(-c4ccccc4)ccc3N)nn2)cc1`, 0%.
In the case of `Nc1ccc(-c2cccs2)cc1NC(=O)CCc1cn(-c2ccc([N+](=O)[O-])cc2)nn1`, the inhibition amounted to 15%.
As to `Nc1ccc(-c2cccs2)cc1NC(=O)c1ccc(-c2cn(Cc3ccc4ccccc4n3)nn2)s1`, the inhibition was 30%.
`Cc1ccccc1CCn1cc(-c2cccc(C(=O)Nc3cc(-c4cccs4)ccc3N)c2)nn1`: the inhibition is 0%.
Turning to `Nc1ccc(-c2cccnc2)cc1NC(=O)CCc1cn(CCc2cccc3ccccc23)nn1`, the inhibition was 13%.
As to `Nc1ccc(-c2ccc(F)cc2)cc1NC(=O)CCc1cn(CC2CCCCC2)nn1`, the inhibition was found to be 1%.
The result for `Nc1ccc(-c2cccs2)cc1NC(=O)CCc1cn(Cc2nc3ccccc3[nH]2)nn1` reads 19%.
The result for `Nc1ccc(-c2cccnc2)cc1NC(=O)CCc1cn(CCN2CCOCC2)nn1` reads 0%.
Then `Nc1ccc(-c2cccnc2)cc1NC(=O)CCc1cn(CCC2CCCCC2)nn1`, with 5%; and `Nc1ccc(-c2ccccc2)cc1NC(=O)CCc1cn(Cc2cccc(-c3ccccc3)c2)nn1`, with 0%; and `Nc1ccc(-c2ccc(F)cc2)cc1NC(=O)c1cn(CS(=O)(=O)c2ccccc2)nn1`, with 7%.
As for `Nc1ccc(-c2ccc(F)cc2)cc1NC(=O)CCc1cn(Cc2cccc3ccccc23)nn1`, the inhibition is 14%.
As for `Nc1ccc(-c2cccnc2)cc1NC(=O)CCc1cn(CCc2ccccc2[N+](=O)[O-])nn1`, the inhibition was 1%.
In the case of `Nc1ccc(-c2cccs2)cc1NC(=O)c1cccc(-c2cn(-c3ccc([N+](=O)[O-])cc3)nn2)c1`, the inhibition came out at 5%.
Then `Nc1ccc(-c2ccsc2)cc1NC(=O)c1cn(CC(=O)Nc2ccc(F)cc2)nn1`, with 8%.
On to `Cc1ccccc1CCn1cc(-c2ccc(C(=O)Nc3cc(-c4cccs4)ccc3N)cc2)nn1`, for which the inhibition is 0%.
For `Nc1ccc(-n2cc(-c3ccc(C(=O)Nc4cc(-c5cccs5)ccc4N)cc3)nn2)cc1`, the inhibition was 51%.
As for `Nc1ccc(-c2ccc(F)cc2)cc1NC(=O)CCc1cn(CCCCCC(=O)O)nn1`, the inhibition is 0%.
Consider `COc1ccc(-n2cc(-c3ccc(C(=O)Nc4cc(-c5cccs5)ccc4N)s3)nn2)cc1`, for which the inhibition worked out at 5%.
In the case of `Nc1ccc(-c2ccc(F)cc2)cc1NC(=O)CCc1cn(CCc2ccccc2[N+](=O)[O-])nn1`, the inhibition was found to be 20%.
As to `Nc1ccc(-c2cccs2)cc1NC(=O)c1ccc(-c2cn(-c3ccc(O)cc3)nn2)cc1`, the inhibition came to 16%.
Turning to `Nc1ccc(-c2ccc(F)cc2)cc1NC(=O)CCc1cn(Cc2cc3ccccc3s2)nn1`, the inhibition stood at 3%.
Then `Nc1ccc(-c2ccsc2)cc1NC(=O)CCc1cn(/C=C/c2ccccc2)nn1`, with 2%.
Consider `Nc1ccc(-c2ccc(F)cc2)cc1NC(=O)CCc1cn(-c2ccc(O)cc2)nn1`, for which the inhibition is 3%.
As for `CCc1ccc(Cn2cc(-c3cccc(C(=O)Nc4cc(-c5cccs5)ccc4N)c3)nn2)cc1`, the inhibition was determined as 0%.
Turning to `Nc1ccc(-c2ccsc2)cc1NC(=O)c1cn(CCCCC(=O)O)nn1`, the inhibition was 0%.
For the compound `Nc1ccc(-c2ccccc2)cc1NC(=O)CCc1cn(Cc2ccc(C(=O)O)cc2)nn1`, the inhibition is 27%.
